ChEMBL document CHEMBL5661943, “ASAP - In vitro antiviral effect” (2024)
Where “and” joins values, the source holds several entries; their conditions need not be identical. Equal entries are not always repeated.

Legend:
Zika virus [1] = assay: (§1) Functional CPE-based assay to measure dose dependent changes in antiviral-drug inhibitory efficacy against Zika virus MR766 in Vero E6 miRFP670 cells. Cells are treated with antiviral candidates that are serially diluted. EC50 is reported via analysis of MTS assay as a readout of CPE. The assay has been performed by KU Leuven.; format: organism-based, Chlorocebus sabaeus, Vero C1008; details: Zika virus; for EC50: Vero C1008
dengue virus type 2 [2] = assay: Functional immunofluorescence assay to measure dose dependent changes in antiviral-drug inhibitory efficacy against Dengue virus type 2 Thailand/16681/84 in Vero E6/TMPRSS2 cells (cotreated with P-gp inhibitor, Elacridar). Cells are treated with antiviral candidates that are serially diluted, following infection, cells are fixed. EC50 is reported via analysis of immunofluorescence staining. The assay has been performed by Icahn School of Medicine at Mount Sinai.; format: organism-based, Chlorocebus sabaeus, VeroE6/TMPRSS2; details: Dengue virus; for EC90: P-gp concentration 2 uM, P-gp inhibitor Elacidar
Zika virus [3] = assay: EC50 is reported via analysis of immunofluorescence staining. The assay has been performed by Icahn School of Medicine at Mount Sinai.; format: functional, organism-based, Chlorocebus sabaeus, VeroE6/TMPRSS2; details: for EC90: P-gp concentration 2 uM, P-gp inhibitor Elacidar
Zika virus [4] = assay: as §1, with “cells (cotreated with P-gp inhibitor, CP100356).” for “cells.”; format: organism-based, Chlorocebus sabaeus, Vero C1008; details: Zika virus; for EC90: P-gp concentration 500 nM, P-gp inhibitor CP100356
dengue virus type 2 [5] = assay: Functional assay to measure dose dependent changes in antiviral-drug inhibitory efficacy against Dengue virus type 2 New Guinea C in Vero E6 miRFP670 cells (cotreated with P-gp inhibitor, CP100356). Cells are treated with antiviral candidates that are serially diluted, following infection, cells are fixed. EC50 is reported via analysis of fluorescence intensity using high-content imager. The …; format: organism-based, Chlorocebus sabaeus, Vero C1008; details: Dengue virus; for EC50: Vero C1008; for EC90: P-gp concentration 500 nM, P-gp inhibitor CP100356

SMILES: O=C(Nc1ccc2c(c1)CNCC2)c1cc(Cl)cc2[nH]ncc12
- EC50 (Zika virus [1]): > 50 µM
- EC90 (Zika virus [1]; Vero C1008, Maximum measured 0.588 %, Minimum measured -2.808 %): > 50 µM

SMILES: CC(C)(C)c1cc(Br)cc(C(=O)Nc2ccc3c(c2)CNC3)c1
- EC50 (Zika virus [1]): > 50 µM
- EC90 (Zika virus [1]; Vero C1008, Baseline response 0 %, Hill slope -3.526, Maximum measured 2.777 %, Maximum response 100 %, Minimum measured -2.992 %, R squared 0.044): > 50 µM

SMILES: CN1Cc2ccc(NC(=O)c3cc(Cl)cc4[nH]ncc34)cc2C1
- EC50 (Zika virus [1]): > 50 µM
- EC90 (Zika virus [1]; Vero C1008, Baseline response 0 %, Hill slope -0.359, Maximum measured 1.713 %, Maximum response 100 %, Minimum measured -2.397 %, R squared 0.026): > 50 µM

SMILES: N#CCCNC(=O)[C@H](Nc1ccc2c(c1)CNC2)c1cc(Cl)cc(C2CC2)c1
- EC50 (dengue virus type 2 [2]; VeroE6/TMPRSS2): > 50 µM
- EC90 (dengue virus type 2 [2]; VeroE6/TMPRSS2, Maximum measured 184.621 %, Minimum measured 81.605 %): > 50 µM
- EC90 (Zika virus [3]; Zika virus, VeroE6/TMPRSS2, Maximum measured 63.585 %, Minimum measured 35.457 %): > 5.56 µM
- EC90 (Zika virus [3]; Zika virus, VeroE6/TMPRSS2, Baseline response 0 %, Hill slope -0.414, Maximum measured 108.813 %, Maximum response 100 %, Minimum measured 38.683 %, R squared 0.619): > 16.7 µM
- EC50 (Zika virus [3]; veroe6/tmprss2): > 5.56 µM and 2.54 µM
- EC50 (Zika virus [4]; Vero C1008): 4.22 µM
- EC90 (Zika virus [4]; Vero C1008, Baseline response 0 %, EC90 CI (lower) 2.191 uM, EC90 CI (upper) 28.402 uM, Hill slope 3.509, Maximum measured 177.981 %, Maximum response 100 %, Minimum measured 1.478 %, R squared 0.727): 7.89 µM
- EC50 (dengue virus type 2 [5]): > 50 µM
- EC90 (dengue virus type 2 [5]; Vero C1008, Maximum measured 137.124 %, Minimum measured 107.523 %): > 50 µM

SMILES: O=C(Nc1ccc2c(c1)CNC2)c1cc(F)cc2[nH]nnc12
- EC50 (dengue virus type 2 [2]; VeroE6/TMPRSS2): > 50 µM
- EC90 (dengue virus type 2 [2]; VeroE6/TMPRSS2, Maximum measured 175.922 %, Minimum measured 81.786 %): > 50 µM
- EC90 (dengue virus type 2 [2]; VeroE6/TMPRSS2, Baseline response 0 %, Hill slope 0.135, Maximum measured 108.442 %, Maximum response 100 %, Minimum measured 80.171 %, R squared 0.018): > 50 µM
- EC50 (Zika virus [3]; Zika virus, VeroE6/TMPRSS2): > 50 µM
- EC90 (Zika virus [3]; Zika virus, VeroE6/TMPRSS2, Maximum measured 143.994 %, Minimum measured 34.535 %): > 50 µM
- EC50 (Zika virus [4]; Vero C1008): > 50 µM
- EC90 (Zika virus [4]; Vero C1008, Maximum measured -0.357 %, Minimum measured -5.629 %): > 50 µM
- EC50 (dengue virus type 2 [5]): > 50 µM
- EC90 (dengue virus type 2 [5]; Vero C1008, Maximum measured 103.909 %, Minimum measured 99.111 %): > 50 µM

SMILES: CC(C)c1cc(Br)cc(C(=O)Nc2ccc3c(c2)CNC3)c1
- EC50 (Zika virus [1]): > 50 µM
- EC90 (Zika virus [1]; Vero C1008, Baseline response 0 %, Hill slope -0.823, Maximum measured 6.311 %, Maximum response 100 %, Minimum measured -3.726 %, R squared 0.279): > 50 µM

SMILES: Cn1cc(CNC(=O)[C@H](Nc2ccc3c(c2)CNC3)c2cc(Cl)cc(C3CC3)c2)cn1
- EC50 (dengue virus type 2 [2]; VeroE6/TMPRSS2): > 50 µM
- EC90 (dengue virus type 2 [2]; VeroE6/TMPRSS2, Maximum measured 219.34 %, Minimum measured 69.596 %): > 50 µM
- EC90 (Zika virus [3]; Zika virus, VeroE6/TMPRSS2, Maximum measured 136.439 %, Minimum measured 82.812 %): > 5.56 µM
- EC90 (Zika virus [3]; Zika virus, VeroE6/TMPRSS2, Maximum measured 172.39 %, Minimum measured 65.114 %): > 50 µM
- EC50 (Zika virus [3]; veroe6/tmprss2): > 50 µM
- EC50 (Zika virus [4]; Vero C1008): > 50 µM
- EC90 (Zika virus [4]; Vero C1008, Maximum measured -1.973 %, Minimum measured -8.89 %): > 50 µM
- EC50 (dengue virus type 2 [5]): > 50 µM
- EC90 (dengue virus type 2 [5]; Vero C1008, Maximum measured 110.921 %, Minimum measured 103.415 %): > 50 µM

SMILES: COC(=O)CNC(=O)[C@H](Nc1ccc2c(c1)CNC2)c1cc(Cl)cc(C2CC2)c1
- EC50 (dengue virus type 2 [2]; VeroE6/TMPRSS2): > 50 µM
- EC90 (dengue virus type 2 [2]; VeroE6/TMPRSS2, Maximum measured 158.675 %, Minimum measured 120.715 %): > 50 µM
- EC90 (Zika virus [3]; Zika virus, VeroE6/TMPRSS2, Maximum measured 147.006 %, Minimum measured 69.301 %): > 16.7 µM
- EC90 (Zika virus [3]; Zika virus, VeroE6/TMPRSS2, Baseline response 0 %, Hill slope -5.229, Maximum measured 154.716 %, Maximum response 100 %, Minimum measured 79.745 %, R squared 0.023): > 5.56 µM
- EC50 (Zika virus [3]; veroe6/tmprss2): > 16.7 µM
- EC50 (Zika virus [4]; Vero C1008): > 50 µM
- EC90 (Zika virus [4]; Vero C1008, Baseline response 0 %, Hill slope 2.666, Maximum measured 16.971 %, Maximum response 100 %, Minimum measured -1.569 %, R squared 0.882): > 50 µM
- EC50 (dengue virus type 2 [5]): > 50 µM
- EC90 (dengue virus type 2 [5]; Vero C1008, Maximum measured 109.152 %, Minimum measured 106.626 %): > 50 µM

SMILES: N#C[C@H](Nc1cncc(-c2nn[nH]n2)c1)c1cc(Cl)cc(NC(=O)OCc2ccccc2)c1
- EC50 (Zika virus [1]): > 50 µM
- EC90 (Zika virus [1]; Vero C1008, Baseline response 0 %, Hill slope -0.546, Maximum measured 2.599 %, Maximum response 100 %, Minimum measured -1.254 %, R squared 0.412): > 50 µM

SMILES: O=C(Nc1cc(Cl)cc([C@H]2[C@H](CO)[C@@H]2c2cccc(-c3nn[nH]n3)c2)c1)OCc1ccccc1
- EC50 (Zika virus [1]): > 50 µM
- EC90 (Zika virus [1]; Vero C1008, Baseline response 0 %, Hill slope -0.077, Maximum measured 3.793 %, Maximum response 100 %, Minimum measured 1.644 %, R squared 0.146): > 50 µM
